The subject of one test is Haemonchus contortus. Kind of test: Method A: Haemonchus contortus L1 larvae, microtitre plate screen. The settings on record: 96 h, read-out: motility inhibition.
Test [1] deals with microfilaria of Dirofilaria immitis. Nature of the test: Method F: microfilaria of Dirofilaria immitis, survival at 24 hours.
[2] abbreviates: survival of microfilaria at 24 hours.

The structures appear in SMILES notation. Like-named read-outs stand apart in the source and are kept apart here.

The term inhibition denotes how much of the control response was suppressed. By EC50 is commonly meant the midpoint of the concentration-response curve. A lower EC50 goes with a more potent agent. Turning to `O=C(NCCOc1ccc(Nc2ccc([N+](=O)[O-])c(C(F)(F)F)c2)cc1)C(=O)NCC1Cc2cc(C(F)(F)F)ccc2O1` (centres unmarked) [Compound 227, N^1-(2-(4-(4-nitro-3-(trifluoromethyl)phenylamino)phenoxy)ethyl)-N^2-((5-(trifluoromethyl)-2,3-dihydrobenzofuran-2-yl)methyl)ethanediamide], the inhibition at 5 µg/mL in the test with Haemonchus contortus is no less than 90%. This molecule also had an EC50 in test [1] (setting [2]) of less than 1 µg/mL.

For `O=C(CO[C@H]1CC[C@H](Nc2ccc([N+](=O)[O-])c(C(F)(F)F)c2)CC1)N1CCN(c2ccc3cc(C(F)(F)F)ccc3c2)CC1` [Compound 232, 2-[4-(4-nitro-3-trifluoromethyl-phenylamino)-cyclohexyloxy]-1-[4-(6-trifluoromethyl-naphthalen-2-yl)-piperazin-1-yl]-ethanone], the inhibition at 5 µg/mL with Haemonchus contortus was no less than 90%. Further, the half-maximal effective concentration (EC50) in test [1] (setting [2]) was less than 5 µg/mL.

Regarding `O=C(CO[C@H]1CC[C@H](Nc2ccc([N+](=O)[O-])c(C(F)(F)F)c2)CC1)N1CCN(c2ccc3cc(Cl)ccc3c2)CC1` [Compound 233, 1-[4-(6-chloro-2-naphthyl)piperazin-1-yl]-2-[4-[4-nitro-3-(trifluoromethyl)anilino]cyclohexoxy]ethanone], in the test with Haemonchus contortus, the inhibition at 5 µg/mL was no less than 90%. The molecule also gave a concentration for a half-maximal effect (EC50) in test [1] (setting [2]) of less than 1 µg/mL.

As to `O=C(CO[C@H]1CC[C@H](Nc2ccc([N+](=O)[O-])c(C(F)(F)F)c2)CC1)N1CCN(c2cc3cc(F)ccc3s2)CC1` [Compound 236, 1-(4-(5-fluorobenzo[b]thiophen-2-yl)piperazin-1-yl)-2-((4-((4-nitro-3-(trifluoromethyl)phenyl)amino)cyclohexyl)oxy)ethanone], the inhibition at 5 µg/mL in the test with Haemonchus contortus was no less than 90%. In test [1] (setting [2]), this molecule had an EC50 of less than 1 µg/mL.

With `CN(c1ccc([N+](=O)[O-])c(C(F)(F)F)c1)[C@H]1CC[C@H](OCC(=O)N2CCN(c3ccc4cc(F)ccc4n3)CC2)CC1` [Compound 247, 1-(4-(6-fluoroquinolin-2-yl)piperazin-1-yl)-2-(4-(methyl(4-nitro-3-(trifluoromethyl)phenyl)amino)cyclohexyloxy)ethanone], the inhibition at 5 µg/mL with Haemonchus contortus was no less than 90%. Moreover, in test [1] (setting [2]), the EC50 is less than 1 µg/mL.

Take `CN(c1ccc([N+](=O)[O-])c(C(F)(F)F)c1)[C@H]1CC[C@H](OCC(=O)N2CCN(c3ccc4cc(F)ccc4c3)CC2)CC1` [Compound 248, 1-(4-(6-fluoronaphthalen-2-yl)piperazin-1-yl)-2-(4-(methyl(4-nitro-3-(trifluoromethyl)phenyl)amino)cyclohexyloxy)ethanone]: in the test on Haemonchus contortus, the inhibition at 5 µg/mL is no less than 90%. Moreover, the EC50 in test [1] was less than 0.1 µg/mL.

As to `CC(O[C@H]1CC[C@H](Nc2ccc([N+](=O)[O-])c(C(F)(F)F)c2)CC1)C(=O)N1CCN(c2ccc3cc(C(F)(F)F)ccc3n2)CC1` (some centres unmarked) [Compound 249, 2-[[-4-[[4-nitro-3-(trifluoromethyl)phenyl]amino]cyclohexyl]oxy]-1-[4-[6-(trifluoromethyl)quinolin-2-yl]piperazin-1-yl]propan-1-one], in the test with Haemonchus contortus, the inhibition at 5 µg/mL was no less than 90%. Besides, the EC50 in test [1] is less than 1 µg/mL.

For `CC(O[C@H]1CC[C@H](Nc2ccc([N+](=O)[O-])c(C(F)(F)F)c2)CC1)C(=O)N1CCN(c2ccc3cc(Cl)ccc3n2)CC1` (some centres unmarked) [Compound 250, 1-[4-(6-chloroquinolin-2-yl)piperazin-1-yl]-2-[[4-[[4-nitro-3-(trifluoromethyl)phenyl]amino]cyclohexyl]oxy]propan-1-one], the inhibition at 5 µg/mL in the test with Haemonchus contortus is no less than 90%. The molecule also registered an EC50 in test [1] (setting [2]) of less than 1 µg/mL.

For the molecule `CC(O[C@H]1CC[C@H](Nc2ccc([N+](=O)[O-])c(C(F)(F)F)c2)CC1)C(=O)N1CCN(c2ccc3cc(F)ccc3n2)CC1` (some centres unmarked) [Compound 251, 1-[4-(6-fluoroquinolin-2-yl)piperazin-1-yl]-2-[[4-[[4-nitro-3-(trifluoromethyl)phenyl]amino]cyclohexyl]oxy]propan-1-one], the inhibition at 5 µg/mL in the test with Haemonchus contortus is no less than 90%. This molecule also returned a half-maximal effective concentration (EC50) in test [1] (setting [2]) of less than 1 µg/mL.

Take `CC(O[C@H]1CC[C@H](Nc2ccc([N+](=O)[O-])c(C(F)(F)F)c2)CC1)C(=O)N1CCN(c2ccc3cc(F)ccc3c2)CC1` (some centres unmarked) [Compound 252, 1-(4-(6-fluoronaphthalen-2-yl)piperazin-1-yl)-2-(−4-(4-nitro-3-(trifluoromethyl)phenylamino)cyclohexyloxy)propan-1-one]: the inhibition at 5 µg/mL with Haemonchus contortus was no less than 90%. The molecule also yielded an EC50 in test [1] (setting [2]) of less than 1 µg/mL.

Turning to `O=C(CO[C@H]1CC[C@H](Nc2ccc([N+](=O)[O-])c(C(F)(F)F)c2)CC1)N1CCN(Cc2oc3ccc(C(F)(F)F)cc3c2Cl)CC1` [Compound 253, 1-(4-[[3-chloro-5-(trifluoromethyl)-1-benzofuran-2-yl]methyl]piperazin-1-yl)-2-[[4-[[4-nitro-3-(trifluoromethyl)phenyl]amino]cyclohexyl]oxy]ethan-1-one], the inhibition at 5 µg/mL in the test with Haemonchus contortus was no less than 90%. Moreover, the EC50 in test [1] (setting [2]) is less than 0.1 µg/mL.

With `CC(c1oc2ccc(C(F)(F)F)cc2c1Cl)N1CCN(C(=O)CO[C@H]2CC[C@H](Nc3ccc([N+](=O)[O-])c(C(F)(F)F)c3)CC2)CC1` (some centres unmarked) [Compound 255, 2-1-(4-[1-[3-chloro-5-(trifluoromethyl)-1-benzofuran-2-yl]ethyl]piperazin-1-yl)-2-[[4-[[4-nitro-3-(trifluoromethyl)phenyl]amino]cyclohexyl]oxy]ethan-1-one], the inhibition at 5 µg/mL in the test on Haemonchus contortus is no less than 90%. Besides, in test [1] (setting [2]), the EC50 was less than 1 µg/mL.

With `CC(c1cc2cc(C(F)(F)F)ccc2o1)N1CCN(C(=O)CO[C@H]2CC[C@H](N(C)c3ccc([N+](=O)[O-])c(C(F)(F)F)c3)CC2)CC1` (some centres unmarked) [Compound 257, 2-[[4-[methyl[4-nitro-3-(trifluoromethyl)phenyl]amino]cyclohexyl]oxy]-1-(4-[1-[5-(trifluoro-methyl)-1-benzofuran-2-yl]ethyl]piperazin-1-yl)ethan-1-one], in the test with Haemonchus contortus, the inhibition at 5 µg/mL was no less than 90%. Moreover, the EC50 in test [1] (setting [2]) is less than 5 µg/mL.

In the case of `CN(c1ccc([N+](=O)[O-])c(C(F)(F)F)c1)[C@H]1CC[C@H](OCC(=O)N2CCN(Cc3oc4ccc(C(F)(F)F)cc4c3Cl)CC2)CC1` [Compound 258, 1-(4-[[3-chloro-5-(trifluoromethyl)-1-benzofuran-2-yl]methyl]piperazin-1-yl)-2-[[4-[methyl[4-nitro-3-(trifluoromethyl)phenyl]amino]cyclohexyl]oxy]ethan-1-one], in the test with Haemonchus contortus, the inhibition at 5 µg/mL is no less than 90%. In test [1] (setting [2]), this molecule had a concentration giving a half-maximal response (EC50) of less than 1 µg/mL.

Take `O=[N+]([O-])c1ccc(N[C@H]2CC[C@H](OCC(=S)N3CCN(c4ccc5cc(F)ccc5c4)CC3)CC2)cc1C(F)(F)F` [Compound 263, 1-[4-(6-fluoro-naphthalen-2-yl)-piperazin-1-yl]-2-[4-(4-nitro-3-trifluoromethyl-henylamino)-cyclohexyloxy]-ethanethione]: the inhibition at 5 µg/mL in the test on Haemonchus contortus is no less than 90%. This molecule displayed an EC50 in test [1] (setting [2]) of less than 1 µg/mL.

As for `O=[N+]([O-])c1ccc(N[C@H]2CC[C@H](OCC(=S)N3CCN(CC4Cc5cc(F)ccc5O4)CC3)CC2)cc1C(F)(F)F` (some centres unmarked) [Compound 265, 1-[4-(5-fluoro-2,3-dihydro-benzofuran-2-ylmethyl)-piperazin-1-yl]-2-[4-(4-nitro-3-trifluoromethyl-phenylamino)-cyclohexyloxy]-ethanethione], in the test with Haemonchus contortus, the inhibition at 5 µg/mL is no less than 90%. Moreover, the EC50 in test [1] (setting [2]) was less than 1 µg/mL.

(Values after patent publication US9249102B2 (priority 2012, dated 2016).)
